The values below come from US7482008B1, “Human T cell reactive feline protein (TRFP) isolated from house dust and uses therefor” (Merck Patent GmbH, priority 1989, dated 2009).

Common to all, as to assay type: cell-based, human
Test [1] relates to T cells from cat allergic patients. The test can be described thus: T cell proliferation of TRFP-primed T cells from cat allergic patients (tritiated thymidine), Example 5 Part A. The note with it: for secondary T cell response of patient 131: FIG. 8. The procedure:
Peripheral blood mononuclear cells (PBMC) were purified from 60 ml of heparinized blood from cat allergic patients. PBMC were subsequently treated as described below, although in individual cases, the length of time of cultivation with IL-2 and/or IL-4 and the specific peptides used for stimulation varied.
10 ml of PBMC from patient 131 at 10^6 /ml were cultured at 37° C. for 7 days in the presence of 5 μg purified TRFP/ml RPMI-1640 supplemented with 5% pooled human AB serum. Viable cells were purified by Ficoll-Hypaque centrifugation and cultured for three weeks at 5 units recombinant human IL-2/ml and 5 units recombinant human IL-4/ml. The resting T cells were then restimulated (secondary) with 5 μg TRFP at 2×10^5/ml in the presence of irradiated (3500 Rads) autologous PBMC at a concentration of 5×10^5/ml for three days, purified by Ficoll-Hypaque centrifugation and grown in 5 units IL-2 and 5 units IL-4/ml for two weeks. For assay, 2×10^4 resting secondary T cells were restimulated (tertiary) in the presence of 5×10^4 irradiated (3500 Rads) autologous PBMC or 2×10^4 transformed B cells (20,000 Rads) with various concentrations of allergens or their fragments in a volume of 200 microliters in a 96-well round bottom assay plates for 3 days. Each well then received 1 μCurie tritiated (methyl) thymidine for 16 hours. The counts incorporated were collected onto glass fiber filters and processed for liquid scintillation counting.
Antigens used: T cell reactive feline protein (TRFP), Hollister-Stier cat epithelium skin test reagent (CST), IPC ragweed pollen extract (pollen), and synthetic peptides derived from TRFP protein sequence (See FIGS. 6 and 7). Positive T cell proliferation is for these experiments was considered to be greater than 2.5 times the media control (T cells and antigen presenting cells alone).
Alternatively, PBMC were treated as follows: The primary stimulated cells were cultured in IL-2/IL-4 for two weeks. The resting T cells derived from this culture were tested in a secondary assay with some, but not all, of the above allergens. […] This type of epitope analysis has allowed the definition of T cell epitopes present in TRFP.

In test [2] the test system is T cells from cat-allergic patients. The test can be described thus: Secondary proliferation assay of T cells primed with TRFP, peptide YXZ or peptide YZX. The protocol: The human cat allergic T cell response to peptides produced as above was examined. […] Peptide YZX was cleaved with thrombin as described in Example 25. Viable cells were then purified by Ficoll-Hypaque centrifugation and cultured for 2 additional weeks in RPMI-1640/5% AB serum containing 5 units recombinant human IL-2/ml and 5 units recombinant human IL-4/ml. The resting T cells were then tested in a secondary proliferation assay using a 96 well microtiter plate to assess T cell responses to various TRFP proteins or peptides (TRFP antigens). For assay, 2×10^4 resting T cells were cultured for 3 days at 37° C. in the presence of 2×10^4 autologous Epstein-Barr virus transformed B cells (25,000 Rads) as antigen presenting cells with various concentrations of antigen in 200 μl per well. Each well then received 1 μCi tritiated thymidine for 16 hours. The counts incorporated were collected onto glass fiber filters and processed for liquid scintillation counting. The stimulation indices for responses to each antigen were then calculated as the maximum CPM in response to antigen divided by the medium control CPM. A stimulation index of 2.5 was considered to be a positive T cell response. A summary of the results of 3 such experiments (patients 522, 519, and 386 is shown in FIG. 35a, FIG. 35b and FIG. 35c). As compared to the experiments shown in FIGS. 35a and 35b in the experiment shown in […], Fel-1.4 (chain 1, amino acid residues 6-17) was substituted for Fel-1.2 (chain 1, amino acid residues 1-17) and Fel-33.3 (chain 2, amino acid residues 26-40) was substituted for Fel-18 (chain 2, amino acid residues 23-48) in order to more closely resemble the constituent amino acids of peptides X and Z. In addition, in this experiment one peptide derived from the Y-Z junction of peptide YZX (amino acid residues 50-55 from chain 1 of TRFP and amino acid residues 14-19 from chain 2 of TRFP) and one peptide derived from the Z-X junction of peptide YZX (amino acid residues 34-39 of chain 2 of TRFP and amino acid residues 7-12 of chain 1 of TRFP) were synthesized and tested. These junction peptides were produced in order to determine whether these areas of peptide YZX produce a non-native epitope when formed in the peptide.

The test system of test [3] is PBMC from cat-allergic patients. The test can be described thus: IL-2, IFN-gamma and IL-4 measurements by PCR in primary 36 hour PBMC culture. The note with it: Patient 409 primary 36 hour culture. The protocol:
Peripheral blood mononuclear cells (PBMC) were purified from cat-allergic patients as described in Example 5. Five×10^6 PBMC were cultured at 2×10^6/ml for 36 hours in the presence of medium only, 20 μg purified TRFP/ml or 50 μg peptide/ml. The cells were then washed two times with phosphate buffered saline (PBS, pH 7.2) and lysed with 2 ml […] guanidinium isothiocyanate, 0.5% Sarkosyl, 5 mM sodium citrate, 0.1 M 2-mercaptoethanol, pH 7.0. The lysate was then forced through a 26 gauge needle to shear genomic DNA, and was layered onto a 2 ml cushion of 5.7 M CsCl, 0.01 M EDTA, pH 7.5 in diethylpyrocarbonate (DEPC)-treated water. The lysate was centrifuged at 35,000 RPM in a Beckman SW41 rotor for 18 hours at 20° C. The RNA pellet was resuspended in 0.4 ml TE (10 mM Tris, 1 mM EDTA), pH 7.5, 0.1% SDS, and then extracted three times with 0.5 ml phenol/0.2 ml chloroform. The RNA was then precipitated on dry ice with 2.5 volumes ice-cold ethanol, 1/10 volume 3 M sodium acetate, pH 5.2 in DEPC-treated water, rinsed once with 70% ethanol in DEPC-treated water, and dried. The RNA pellet was resuspended in 2 μl TE., pH 7.5 in DEPC-treated water.
Total cellular RNA was converted to cDNA using the Superscript kit (BRL, Bethesda, Md.). Two μl of RNA were added to one μl oligo (dT)12-18 (500 μg/ml) and 9 μl water. The sample was heated to 70° C. for 10 minutes and ice quenched. Four μl 5× buffer were added to the sample along with 2 μl 0.1 M DTT and 1 μl dNTP mix (10 mM each, dATP, dCTP, dGTP, dTTP). One μl reverse transcriptase (200U) was added and the reaction was carried out for one hour at 42° C. The reaction was terminated by incubation of the sample at 90° C. for five minutes and stored at −80° C.
Ten-fold serial dilutions of T cell cDNA in 10 mM TRIS, pH 7.5 were amplified using the standard kit and protocol recommended by Perkin Elmer-Cetus (Redwood City, Calif.). Each sample received 26.65 μl water, 5 μl ×PCR buffer, 8 μl of dNTP mix (1.25 mM each of dATP, dCTP, dGTP and dTTP), 0.1 μl alpha 32P-dCTP (3000 Ci/mmol), 0.25 μl AmpliTaq, 5 μl cDNA and 5 μl cytokine-specific 5′ and 3′ primers (20 micromolar). The primers used for most cytokines and the beta-actin control were purchased from Clontech (Redwood City, Calif.). The human IL-4 primers were purchased from Research Genetics (Huntsville, Ala.) and had the following sequences: 5′ hIL-4 primer (SEQ. ID. NO: 58):
The PCR products were extracted once with 25 μl chloroform and 25 μl of each sample were then electrophoresed on an 8% polyacrylamide gel at 250 V. The gel was dried and exposed to pre-flashed x-ray film. Several exposures of each gel were then scanned using a Shimadzu flying spot laser densitometer. Values on the linear portion of the titrations were then compared to the medium control values to obtain a stimulation index for each sample. Primers for beta-actin were included as a control for general cDNA levels in each sample. Where the medium control values are not detectable, the lowest measurable response was set at 1.00. In other experiments, levels of cytokine cDNA can be compared directly with previously amplified cytokine specific cDNAs as standards. Thus, absolute levels of particular cytokine cDNAs can be compared from one sample to another and from one experiment to another. In this experiment, IL-2, IL-4 and IFN-gamma levels were measured. As shown, in this particular cat-allergic patient, peptides such as Fel 18 generate more IL-4 than certain other TRFP-derived peptides (Fel 14 and Fel 17). This analysis will be expanded to studies of other cytokines involved in the generation of allergic responses, such as IL-5, IL-8, IL-9, TGF-beta. Samples of cDNA from each treatment can also be saved for later analysis once additional cytokines are identified and sequenced. Peptides generating a spectrum of cytokines favorable for the generation of allergic responses can be avoided for therapeutic use in the treatment of cat allergy. […]

The mark [4] stands for this setting: Table 3, chain #2 TRFP peptides.
Setting [5] is: patient 386, T cells primed with YZX.
The mark [6] stands for this setting: patient 522, T cells primed with YXZ.
Setting [7] is: Table 2, chain #1 TRFP peptides, average SI of responding patients multiplied by percent of patients with positive response (SI >2.5).
The mark [8] stands for this setting: Table 2, chain #1 TRFP peptides, average cpm with antigen divided by cpm of T cells and APC alone, responding patients.
Setting [9] is: patient 522, T cells primed with native TRFP, SI 2.5 positive.

In test [1] (setting [4]), “Fel 16: TRFP chain 2 amino acids 1-22 (DTMRGALLVLALLVTQALGVKM)” gave a PI of 283 and an SI of 5.9.
Take “DVDLFLTGTPDEYVEQV [Fel 2, TRFP chain 1 amino acids 9-25]”: the T cell response result in test [2] (setting [5]) and in test [2] (setting [6]) was “respond at a similar level or better” each time. The same substance returned a PI in test [1] (setting [7]) of 416. For the same substance, the SI in test [1] (setting [8]) is 7.3.
Consider “Fel 4-2: TRFP chain 1 amino acids 37-49 (NARILKNCVDAKM; UniProt P30438 59-71, looked up, fragment)”, for which the PI in test [1] (setting [7]) amounted to 378. In test [1] (setting [8]), this substance displayed an SI of 6.2.
Take “Fel 14-2: TRFP chain 1 amino acids 29-42 (KALPVVLENARILK; UniProt P30438 51-64, looked up, fragment)”: the T cell response entry in test [2] (setting [5]) is on record as “respond at a similar level or better”; in test [2] (patient 386, T cells primed with native TRFP) it was “positively respond”; in test [2] (setting [6]), “respond at a similar level or better”; in test [2] (setting [9]), “positively respond”. Also, the SI in test [1] (setting [8]) came out at 4.6.
Consider “Fel 17: TRFP chain 2 amino acids 12-33 (LLVTQALGVKMAETCPIFYDVF)”, for which the T cell response result in test [2] (setting [5]) was “respond at a similar level or better”; in test [2] (patient 519, cells primed with peptide YXZ), “positive responses”; in test [2] (setting [6]) it was “respond at a similar level or better”; in test [2] (setting [9]), “positively respond”.
Regarding “LLLDLSLTKVNATEPERTAMKKIQDC [Fel 18, TRFP chain 2 amino acids 23-48]”, in test [3], the “RATIO IFN/IL-4” value is listed as 0.5 and the “RATIO IL-2/IL-4” value is recorded as 0.4. For the same substance, in test [3] (PCR, vs medium control), the “STIMULATION INDEX IFN-γ” value was 5.6, the “STIMULATION INDEX IL-2” value was found to be 4.6 and the “STIMULATION INDEX IL-4” value is 12.0. Also, the T cell response result in test [2] (setting [6]) was “respond at a similar level or better”. Moreover, in test [1] (setting [4]), the PI turned out to be 466 and the SI is on record as 6.3.
In test [1] (setting [7]), “Fel 4-1: TRFP chain 1 amino acids 37-52 (NARILKNCVDAKMTEE; UniProt P30438 59-74, looked up, fragment)” had a PI of 822. Moreover, the SI in test [1] (setting [8]) is 9.9.
“Fel 33-3: TRFP chain 2 amino acids 26-40 (CPIFYDVFFAVANGN)”: in test [1] (setting [4]), the PI was 235 and the SI was 5.0.
On the same counts, the results for “Fel 33-1: TRFP chain 2 amino acids 26-36 (CPIFYDVFFAV)” are 340 and 5.4.
On the same counts, the results for “Fel 33-2: TRFP chain 2 amino acids 26-38 (CPIFYDVFFAVAN)” are 210 and 4.2.
In test [1] (setting [7]), “Fel 1-4: TRFP chain 1 amino acids 6-17 (VKRDVDLFLTGT; UniProt P30438 28-39, looked up, fragment)” yielded a PI of 816. Moreover, in test [1] (setting [8]), the SI came out at 9.6.
In test [1] (setting [4]), “Fel 32-3: TRFP chain 2 amino acids 16-24 (QALGVKMAE)” came in with a PI of 270 and an SI of 3.7.
Take “Fel 8: TRFP chain 1 amino acids 1-30 (EICPAVKRDVDLFLTGTPDEYVEQVAQYKA; UniProt P30438 23-52, looked up, fragment)”: in test [1], the “secondary T cell response of patient 131” value was “respond”.
“EITPAVKRDVDLFLTGT [Fel 1, TRFP chain 1 amino acids 1-17, amino acid 3 changed to T]”: the “secondary T cell response of patient 131” value in test [1] was “respond”. For the same substance, in test [1] (setting [7]), the PI came to 392. In test [1] (setting [8]), this substance came in with an SI of 5.6.
In test [1] (setting [7]), “Fel 1-5: TRFP chain 1 amino acids 8-17 (RDVDLFLTGT; UniProt P30438 30-39, looked up, fragment)” came in with a PI of 286. For the same substance, the SI in test [1] (setting [8]) was 5.2.
The matching figures for “Fel 14-3: TRFP chain 1 amino acids 25-36 (VAQYKALPVVLE; UniProt P30438 47-58, looked up, fragment)”: 621 and 6.9.
